In the supplement of paper PMC12076712:

Columns and labels:
Assay in all cases: pIC50, kinobeads binding competition
CLK2 = CLK2 (UniProt P49760)
Outline: (§1)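 Either living Jurkat cells (60 min at 37 °C, then lysis) or lysates (60 min at 4 °C) were treated with nine compound concentrations from a top of 30 μM, in 1:4 steps for cells and 1:5 steps for lysates. The lysates were from Jurkat cells or a 1:1:1:1 mix of HEK293, K-562, HepG2 and placenta. Kinobeads-bound proteins were digested and quantified by TMT10 LC-MS/MS. pIC50 was calculated by logistic dose-response fitting (R drc package) of fold changes relative to vehicle, in biological duplicates.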

ADCK1 = molecular target: T1, ADCK1 (UniProt Q86TW2); conditions: cell material: Lysate mix
T1 sequence (whole entry): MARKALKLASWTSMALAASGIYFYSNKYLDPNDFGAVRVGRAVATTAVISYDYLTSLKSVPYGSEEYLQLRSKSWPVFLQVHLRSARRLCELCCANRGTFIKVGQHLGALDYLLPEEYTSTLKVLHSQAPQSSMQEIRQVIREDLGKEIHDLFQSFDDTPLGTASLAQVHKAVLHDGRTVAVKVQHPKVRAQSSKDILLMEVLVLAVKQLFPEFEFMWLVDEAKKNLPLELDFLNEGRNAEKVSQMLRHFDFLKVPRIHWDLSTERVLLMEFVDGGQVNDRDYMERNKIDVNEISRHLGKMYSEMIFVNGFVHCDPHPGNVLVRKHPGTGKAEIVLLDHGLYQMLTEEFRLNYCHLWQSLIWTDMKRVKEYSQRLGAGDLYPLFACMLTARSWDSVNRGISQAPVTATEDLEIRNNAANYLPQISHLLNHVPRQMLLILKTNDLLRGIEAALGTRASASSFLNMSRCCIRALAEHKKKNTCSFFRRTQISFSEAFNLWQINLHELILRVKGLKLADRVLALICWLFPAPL
Outline: as §1

PRKACB = PRKACB (UniProt P22694)
Outline: as §1

MASTL = molecular target: T2, MASTL (UniProt Q96GX5)
T2 sequence (whole entry): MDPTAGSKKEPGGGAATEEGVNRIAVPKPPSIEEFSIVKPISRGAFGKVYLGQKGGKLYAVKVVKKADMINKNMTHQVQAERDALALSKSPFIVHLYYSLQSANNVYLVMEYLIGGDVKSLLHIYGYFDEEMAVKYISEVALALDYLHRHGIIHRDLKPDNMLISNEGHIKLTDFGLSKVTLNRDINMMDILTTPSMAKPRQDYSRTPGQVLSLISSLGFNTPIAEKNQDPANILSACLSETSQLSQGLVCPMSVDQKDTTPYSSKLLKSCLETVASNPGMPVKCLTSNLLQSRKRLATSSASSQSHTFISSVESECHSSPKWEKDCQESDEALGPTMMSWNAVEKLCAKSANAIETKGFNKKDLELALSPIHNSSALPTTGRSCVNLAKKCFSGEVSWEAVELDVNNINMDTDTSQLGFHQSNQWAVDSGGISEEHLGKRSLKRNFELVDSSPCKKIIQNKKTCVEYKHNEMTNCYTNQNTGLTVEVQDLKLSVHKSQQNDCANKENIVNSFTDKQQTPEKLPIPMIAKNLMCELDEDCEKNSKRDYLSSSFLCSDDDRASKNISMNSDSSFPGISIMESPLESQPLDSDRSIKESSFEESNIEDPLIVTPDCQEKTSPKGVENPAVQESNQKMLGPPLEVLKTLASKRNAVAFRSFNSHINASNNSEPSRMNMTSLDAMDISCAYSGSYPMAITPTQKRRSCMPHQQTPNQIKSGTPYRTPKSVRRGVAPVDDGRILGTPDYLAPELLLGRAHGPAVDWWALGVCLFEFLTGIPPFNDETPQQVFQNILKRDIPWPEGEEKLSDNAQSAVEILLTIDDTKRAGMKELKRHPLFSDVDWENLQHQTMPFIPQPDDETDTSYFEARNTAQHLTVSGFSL
Outline: as §1

KSR1 = molecular target: T3, KSR1 (UniProt Q8IVT5)
T3 sequence (whole entry): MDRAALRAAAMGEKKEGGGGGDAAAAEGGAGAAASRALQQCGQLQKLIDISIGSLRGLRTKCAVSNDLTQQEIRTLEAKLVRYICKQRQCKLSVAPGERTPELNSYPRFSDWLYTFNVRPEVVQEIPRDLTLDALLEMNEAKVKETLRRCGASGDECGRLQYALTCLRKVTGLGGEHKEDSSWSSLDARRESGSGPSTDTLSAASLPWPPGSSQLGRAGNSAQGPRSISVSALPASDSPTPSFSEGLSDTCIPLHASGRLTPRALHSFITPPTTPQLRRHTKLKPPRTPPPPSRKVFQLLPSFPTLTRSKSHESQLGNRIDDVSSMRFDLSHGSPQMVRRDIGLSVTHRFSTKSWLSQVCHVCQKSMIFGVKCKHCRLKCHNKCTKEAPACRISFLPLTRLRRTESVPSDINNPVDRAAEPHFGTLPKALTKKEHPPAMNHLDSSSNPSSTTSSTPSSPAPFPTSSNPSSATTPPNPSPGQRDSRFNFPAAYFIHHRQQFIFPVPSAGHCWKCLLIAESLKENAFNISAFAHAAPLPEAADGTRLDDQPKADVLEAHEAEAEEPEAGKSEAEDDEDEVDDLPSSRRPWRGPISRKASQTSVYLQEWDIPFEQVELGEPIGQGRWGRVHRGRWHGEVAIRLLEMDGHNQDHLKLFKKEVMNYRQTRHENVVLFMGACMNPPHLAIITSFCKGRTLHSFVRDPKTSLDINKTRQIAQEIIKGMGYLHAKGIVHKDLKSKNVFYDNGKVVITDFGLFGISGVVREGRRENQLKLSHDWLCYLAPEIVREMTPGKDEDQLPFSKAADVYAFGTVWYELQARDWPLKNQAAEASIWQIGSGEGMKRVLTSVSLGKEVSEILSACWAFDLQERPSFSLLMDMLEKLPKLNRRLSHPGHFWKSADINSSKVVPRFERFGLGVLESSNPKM
Outline: as §1

CDK4 = CDK4 (UniProt P11802); conditions: cell material: Lysate mix
Chain of CDK4 (P11802 whole entry): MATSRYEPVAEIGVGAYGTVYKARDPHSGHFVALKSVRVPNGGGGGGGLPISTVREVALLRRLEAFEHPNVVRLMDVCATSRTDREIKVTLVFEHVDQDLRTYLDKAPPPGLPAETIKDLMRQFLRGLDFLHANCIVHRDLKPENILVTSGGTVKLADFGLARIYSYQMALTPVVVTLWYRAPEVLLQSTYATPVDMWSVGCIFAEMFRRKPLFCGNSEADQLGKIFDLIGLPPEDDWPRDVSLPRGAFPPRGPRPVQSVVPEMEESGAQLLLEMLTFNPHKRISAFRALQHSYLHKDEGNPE
Outline: as §1

Chain of CLK2 (P49760 whole entry, looked up): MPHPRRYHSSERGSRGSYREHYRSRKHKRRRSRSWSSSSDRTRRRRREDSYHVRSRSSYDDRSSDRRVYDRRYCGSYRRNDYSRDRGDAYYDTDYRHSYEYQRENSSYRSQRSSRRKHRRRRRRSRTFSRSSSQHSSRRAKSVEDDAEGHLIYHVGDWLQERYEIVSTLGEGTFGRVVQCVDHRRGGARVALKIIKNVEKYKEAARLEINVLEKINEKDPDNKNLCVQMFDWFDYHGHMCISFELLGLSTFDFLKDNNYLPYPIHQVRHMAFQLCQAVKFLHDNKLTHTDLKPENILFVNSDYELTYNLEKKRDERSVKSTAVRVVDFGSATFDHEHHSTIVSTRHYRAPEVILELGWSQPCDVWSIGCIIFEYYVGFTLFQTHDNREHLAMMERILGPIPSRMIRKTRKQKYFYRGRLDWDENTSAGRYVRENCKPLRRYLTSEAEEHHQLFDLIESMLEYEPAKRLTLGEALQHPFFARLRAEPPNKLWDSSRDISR

SMILES | pIC50 (CLK2; cell material: Jurkat cells) | pIC50 (CLK2; cell material: Jurkat lysate) | pIC50 (ADCK1) | pIC50 (PRKACB; cell material: Jurkat lysate) | pIC50 (MASTL; cell material: Jurkat cells) | pIC50 (MASTL; cell material: Jurkat lysate) | pIC50 (MASTL; cell material: Lysate mix) | pIC50 (KSR1; cell material: Lysate mix) | pIC50 (PRKACB; cell material: Lysate mix) | pIC50 (CDK4) | pIC50 (CLK2; cell material: Lysate mix) | pIC50 (PRKACB; cell material: Jurkat cells) | pIC50 (KSR1; cell material: Jurkat cells) | pIC50 (KSR1; cell material: Jurkat lysate)
C#CCNC(=O)c1cc(Nc2cc(C3CC3)[nH]n2)nc(N2CCN(Cc3ccc(S(=O)(=O)F)cc3)CC2)n1 | 6.11 | 5.57 | < 4.52 | < 4.52 | 6.15 | 6.03 | 6.74 | – | – | – | – | – | – | –
C#CCNC(=O)c1cc(Nc2cc(C)[nH]n2)nc(N2CCN(Cc3ccc(S(=O)(=O)F)cc3)CC2)n1 | – | – | < 4.52 | – | – | – | – | < 4.52 | – | – | – | – | – | –
Cc1cc(Nc2cc(C(=O)NCCNC(=O)OC3CC/C=C/CCC3)nc(N3CCN(Cc4ccc(S(=O)(=O)F)cc4)CC3)n2)n[nH]1 (stereo unspecified) | – | – | < 4.52 | – | – | – | < 4.52 | < 4.52 | < 4.52 | < 4.52 | – | – | – | –
O=C(NCCNC(=O)c1cc(Nc2cc(C3CC3)[nH]n2)nc(N2CCN(Cc3ccc(S(=O)(=O)F)cc3)CC2)n1)OC1CC/C=C/CCC1 (stereo unspecified) | 5.92 | < 4.52 | < 4.52 | < 4.52 | 6.1 | – | – | < 4.52 | – | – | < 4.52 | < 4.52 | < 4.52 | < 4.52
CCNC(=O)c1cc(Nc2cc(C)[nH]n2)nc(N2CCN(Cc3ccc(S(=O)(=O)F)cc3)CC2)n1 | – | – | < 4.52 | – | – | – | – | < 4.52 | < 4.52 | < 4.52 | – | – | – | –
CCNC(=O)c1cc(Nc2cc(C3CC3)[nH]n2)nc(N2CCN(Cc3ccc(S(=O)(=O)F)cc3)CC2)n1 | – | – | – | – | – | – | 6.85 | – | – | 5.05 | 5.55 | – | – | –
